From patent EP4755892A1, “KINESIN KIF18A INHIBITOR AND USE THEREOF” (Shanghai Apeiron Therapeutics Company Limited, priority 2023, dated 2025)
Read-outs that look alike come from different tables or passages of the source.

Legend:
OVCAR3 cells = assay: Cell Proliferation Activity Test (CyQUANT Direct), OVCAR3; assay type: cell-based; conditions: compound 0-10 µM, 3 days, 0.2% DMSO, CyQUANT fluorescence, read-out: OVCAR-3 _IC50_nM
Procedure: Assay 2: Cell Proliferation Activity Test
Materials and Cells: OVCAR3 cells were purchased from Nanjing Cobioer Biosciences Co., Ltd. RPMI-1640 medium, fetal bovine serum, and the CyQUANT Direct Cell Proliferation Assay kit were purchased from Thermo Fisher Scientific, USA; 96-well cell culture plates were sourced from Coming, USA.
Cell Culture: OVCAR3 cells were cultured with RPMI-1640 medium containing 10% fetal bovine serum and incubated in a 5% CO2 incubator at 37°C. Only cells in the logarithmic growth phase could be used for the test.
Cell Proliferation Activity Test:
OVCAR3 cells were inoculated into a 96-well cell culture plate at 90 µL per well and incubated overnight in a 5% CO2 incubator at 37°C. The compound powder was dissolved in DMSO to prepare a stock solution of 10 mM. Then gradient dilution was performed for the compounds in the microplate to achieve a final concentration of 0-10 µM. 10 µL of cell culture medium containing compounds was added to each well to make the final DMSO content 0.2%. The cell plates were incubated in a 5% CO2 incubator at 37°C for 3 days. 100 µL of CyQUANT detection reagent was added to each well, reacted at 37°C for 60 min, and fluorescence detection was performed using the PerkinElmer Envision.

HT29 cells = assay: CyQuant Cell Proliferation Activity Test, HT29; assay type: cell-based; conditions: HT29 cells 2000 per well, initial concentration 3000 nM, 3-fold dilution, 3 days, 0.2% DMSO, read-out: HT29_IC50 _nM
Procedure: Assay 3: CyQuant Cell Proliferation Activity Test
Materials and Cells: HT29 cells were purchased from Nanjing Cobioer Biosciences Co., Ltd.; RPMI-1640 medium, fetal bovine serum, Trypsin-EDTA (0.25%), 96-well plates, and CyQuant reagents were purchased from ThermoFisher (USA); DMSO was purchased from SIGMA (USA).
Cell Culture: HT29 cells were cultured with RPMI-1640 containing 10% fetal bovine serum under the condition of 37°C and 5% CO2. Only cells in the logarithmic growth phase could be used for the test.
Cell Proliferation Activity Test: CyQuant reagent was used to detect the proliferation inhibitory activity of compounds on HT29 cells. The cell density was adjusted, and 100 µL per well was inoculated into a 96-well plate (HT29 at 2000 cells per well), then incubated overnight at 37°C and 5% CO2. Add compounds of various target concentrations (initial concentration of 3000 nM, 3-fold dilution, 9 concentration gradients), and make the DMSO content 0.2%. The cell plate was incubated at 37°C in 5% CO2 for 3 days. CyQuant reagent was added and incubated for 1 h. The plates were read by Envision, and IC50 was calculated using XLFIT.

[1] = biological target: T1, Human KIF18A (amino acid sequence 1-417) (Homo sapiens, UniProt Q8NI77); assay: Enzymatic Activity Test (ADP-Glo, microtubule-stimulated KIF18A ATPase); assay type: biochemical; conditions: 60 µg/mL microtubules, 25 µM ATP, 2.5 nM KIF18A protein, 120 min at ambient temperature, chemiluminescence; read-out: KIF 18A IC50
T1 construct: purchased Viva Biotech (Shanghai) Ltd
T1 sequence (Q8NI77 1-417): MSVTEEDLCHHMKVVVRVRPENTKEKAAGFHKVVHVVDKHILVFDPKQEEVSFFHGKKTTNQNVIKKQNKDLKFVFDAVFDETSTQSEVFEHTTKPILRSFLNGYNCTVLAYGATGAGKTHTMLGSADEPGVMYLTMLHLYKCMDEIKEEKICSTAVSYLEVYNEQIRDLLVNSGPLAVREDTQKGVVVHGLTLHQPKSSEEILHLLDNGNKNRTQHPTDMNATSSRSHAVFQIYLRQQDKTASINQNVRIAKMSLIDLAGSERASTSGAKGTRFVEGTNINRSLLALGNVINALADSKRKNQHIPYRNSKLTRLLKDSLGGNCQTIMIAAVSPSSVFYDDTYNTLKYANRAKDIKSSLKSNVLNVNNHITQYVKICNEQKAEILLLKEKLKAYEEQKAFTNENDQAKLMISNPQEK
Procedure: Assay 1: Enzymatic Activity Test
Materials: Human KIF18A (amino acid sequence 1-417) was purchased from Viva Biotech (Shanghai) Ltd.; the ADP-Glo™ protein kinase kit was acquired from Promega, USA; tubulin was sourced from Cytoskeleton, USA; and the 384-well assay plate and Envision multifunctional microplate reader were obtained from PerkinElmer, USA.
Enzymatic Activity Test: The compound powder was dissolved in DMSO to prepare a stock solution of 10 mM. Then gradient dilution was performed for the compounds in the microplate to achieve a final concentration of 0-10 µM. Then, 2.5 µL each of tubulin, compound, ATP, and KIF18A protein were added to the microplate in sequence for reaction at ambient temperature for 120 min. The final concentrations in the enzyme reaction were 60 µg/mL for microtubules, 25 µM for ATP, and 2.5 nM for KIF18A protein. After the enzyme reaction, 10 µL of ADP-GLO reaction reagent was added to each well and incubated at room temperature for 30 min. After that, 20 µL of detection reagent was added to each well and incubated at room temperature for 30 min in the dark. Finally, chemiluminescence detection was performed using the PerkinElmer Envision.

| IC50 (OVCAR3 cells; Homo sapiens, OVCAR-3, 72 h) [nM] | IC50 (HT29 cells; Homo sapiens, HT-29, 72 h) [nM] | IC50 [1] [nM] | IC50 (OVCAR3 cells) [nM] | IC50 (HT29 cells) [nM] | Compound |
| --- | --- | --- | --- | --- | --- |
| > 3000 | > 3000 | 588 |  |  | O=C1Nc2cccc(c2)S(=O)(=O)NCCCC2CCN(CC2)c2cc(NS(=O)(=O)CCO)ccc21 [Example 16, N-(6,6-dioxo-3-oxo-6-thia-4,7-diaza-1(1,4)-piperidin-2(1,2),5(1,3)-diphenylheterocyclodecane-2^5-yl)-2-hydroxy-1-ethanesulfonamide] |
| 136 | 172 | 200 |  |  | Cc1cc2nc(n1)N1CCCC(C=CCC3CCCN(C3)c3cc(NS(=O)(=O)CCO)ccc3C(=O)N2)C1 (stereo not drawn) [Example 10, 2-Hydroxy-N-(2^6-methyl-4-oxo-3-aza-2(2,4)-pyrimidin-1,6(1,3)-dipiperidin-5(1,2) -benzeneheterocyclononane-8-en-5^4-yl)ethane-1-sulfonamide] |
| 46 | 63 | 158 |  |  | COc1cc2nc(n1)N1CCC(F)(F)C(C=CCC3CCN(CC3)c3cc(NS(=O)(=O)CCO)ccc3C(=O)N2)C1 (stereo not drawn) [Example 24, (Z)-N-(1^4,1^4-difluoro-2^6-methoxy-4-oxo-3-aza-2(2,4)-pyrimidin-1(1,3),6(1,4)-dipiperidin-5(1,2)-benzeneheterocyclonon-8-en-5^4-yl)-2-hydroxyethane-1-sulfonamide] |
| 1480 | > 3000 | 265 |  |  | Cc1cc2nc(n1)N1CCCC(C1)C(=O)NCC1CCN(CC1)c1cc(NS(=O)(=O)CCO)ccc1C(=O)N2 (stereo not drawn) [Example 27, N-(2^6-methyl-4,9-dioxo-3,8-diaza-2(2,4)-pyrimidin-1(1,3),6(1,4)-dipiperidin-5(1,2) -benzeneheterocyclononane-5^4-yl)-2-hydroxyethane-1-sulfonamide] |
| 242 | 255 | 197 |  |  | Cc1cc2nc(n1)N1CCCC(CCCCC3CCN(CC3)c3cc(NS(=O)(=O)CCO)ccc3C(=O)N2)C1 (stereo not drawn) [Example 7, 2-Hydroxy-N-(2^6-methyl-4-oxo-3-aza-2(2,4)-pyrimidin-1(1,3),6(1,4)-dipiperidin-5 (1,2)-benzenecyclodecane-5^4-yl)ethane-1-sulfonamide] |
| > 3000 | > 3000 | 275 |  |  | O=C1Nc2cccc(c2)S(=O)(=O)NCC=CC2CCN(CC2)c2cc(NS(=O)(=O)CCO)ccc21 [Example 15, (E)-N-(6,6-dioxo-3-oxo-6-thia-4,7-diaza-1(1,4)-piperidin-2(1,2),5(1,3)-diphenylheterocyclodec-9-en-2^5-yl)-2-hydroxy-1-ethanesulfonamide] |
|  |  | > 3000 | > 3000 | > 3000 | Cc1cc2nc(n1)N1CCC(F)(F)C(C=CCC3CCN(CC3)c3cc(NS(=O)(=O)CCO)ccc3C(=O)N2)C1 (stereo not drawn) [Example 18A, N-((1^3S,E)-1^4,1^4-difluoro-2^1-methyl-4-oxo-3-aza-2(2,4)-pyrimidin-1(1,3),6(1,4)-dipiperidin-5(1,2)-benzeneheterocyclononane-8-en-5^4-yl)-2-hydroxyethane-1-sulfonamide] |
| > 3000 | > 3000 | 2920 |  |  | Cc1cc2nc(n1)N1CCC(F)(F)C(CCC=C3CCN(CC3)c3cc(NS(=O)(=O)CCO)ccc3C(=O)N2)C1 (stereo not drawn) [Example 20, N-(1^4,1^4-difluoro-2^6-methyl-4-oxo-3-aza-2(2,4)-pyrimidin-1(1,3),6(1,4)-dipiperidin-5(1,2)-benzeneheterocyclononane-5^4-yl)-2-hydroxyethane-1-sulfonamide] |
| 1660 | > 3000 | 736 |  |  | Cc1cc2nc(n1)N1CCCC(C=CC3CCN(CC3)c3cc(NS(=O)(=O)CCO)ccc3C(=O)N2)C1 (stereo not drawn) [Example 4, 2-Hydroxy-N-(1^1-methyl-7-oxo-8-aza-1(2,4)-pyrimidin-2(1,3),5(4,1)-dipiperidin-6 (1,2)-benzeneheterocyclooct-3-en-6^5-yl)ethane-1-sulfonamide] |

| Compound | IC50 (OVCAR3 cells; Homo sapiens, OVCAR-3, 72 h) [nM] | IC50 (HT29 cells; Homo sapiens, HT-29, 72 h) [nM] | IC50 [1] [nM] | IC50 (OVCAR3 cells) [nM] | IC50 (HT29 cells) [nM] |
| --- | --- | --- | --- | --- | --- |
| Cc1cc2nc(n1)N1CCCC(C=CCCC3CCN(CC3)c3cc(NS(=O)(=O)CCO)ccc3C(=O)N2)C1 (stereo not drawn) [Example 6, 2-Hydroxy-N-(2^1-methyl-4-oxo-3-aza-2(2,4)-pyrimidin-1(1,3),6(1,4)-dipiperidin-5 (1,2)-benzenecyclodec-9-en-5^4-yl)ethane-1-sulfonamide] | 52 | 64 | 89 |  |  |
| Cc1cc2nc(n1)N1CCC(F)(F)C(CC=CC3CCN(CC3)c3cc(NS(=O)(=O)CCO)ccc3C(=O)N2)C1 (stereo not drawn) [Example 19, (E)-N-(1^4,1^4-difluoro-2^6-methyl-4-oxo-3-aza-2(2,4)-pyrimidin-1(1,3),6(1,4)-dipiperidin-5(1,2)-benzeneheterocyclonon-7-en-5^4-yl)-2-hydroxyethane-1-sulfonamide] | 703 | 644 | 184 |  |  |
